Data from patent publication US20220054520A1, “OPHTHALMIC COMPOSITION CONTAINING DIQUAFOSOL OR SALT THEREOF, VINYL-BASED POLYMER AND CELLULOSE-BASED POLYMER” (SANTEN PHARMACEUTICAL CO., LTD., priority 2019, published 2022).

Test system: rat dorsal root ganglion neurons
Test: Stimulativeness of diquafosol sodium to peripheral nerves, intracellular calcium fluorescence (FLIPR Calcium 6)
Type: cell-based
Description: The stimulativeness of diquafosol sodium to peripheral nerves in the coexistence of PVP was examined.
Cultured peripheral nerve cells (rat dorsal root ganglion neurons, purchased from Lonza Japan Ltd.) were incubated in a buffer solution (FLIPR Calcium 6 Assay Kit, Molecular Devices, LLC.) including intracellular fluorescent calcium indicator dyes. 40% of the total buffer solution was replaced with each of the aforementioned formulation solutions. The non-stimulation group and the stimulated control group were treated with the buffer solutions instead of the formulation solutions in the same manner. After allowing to stand at room temperature, the fluorescence measurement of the calcium indicator dyes with an elapse of time was started by using a fluorescent plate reader. Diquafosol sodium (final concentration: 0.3%) was added after 60 seconds from the start, and the measurement of fluorescence intensity was continued.
The maximum fluorescence intensity (RFUmax) after addition of diquafosol sodium was calculated relative to the fluorescence intensity (RFU) immediately before the addition as 100%.

O=c1ccn([C@@H]2O[C@H](COP(=O)([O-])OP(=O)([O-])OP(=O)([O-])OP(=O)([O-])OC[C@H]3O[C@@H](n4ccc(=O)[nH]c4=O)[C@H](O)[C@@H]3O)[C@@H](O)[C@H]2O)c(=O)[nH]1.[Na+].[Na+].[Na+].[Na+] [diquafosol sodium, diquafosol tetrasodium salt]
fluorescence intensity / signal of intracellular calcium ions after addition of diquafosol sodium (in words) (peripheral nerve cells exposed to diquafosol sodium 0.3%, with or without formulation solution): rapidly increased
maximum fluorescence intensity (RFUmax) after addition of diquafosol sodium (stimulated control group: buffer solution instead of formulation solution, diquafosol sodium final concentration 0.3%, RFU before addition as 100%): ≥ 103.5%
